Measured values reported in ChEMBL document CHEMBL1201861, “Genomics of Drug Sensitity in Cancer screening data, Wellcome Trust Sanger Institute”.

Legend:
Assay in all cases: cells
SF-126 = assay type: functional, cell-based, Homo sapiens; settings: Homo sapiens, SF-126;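 further: growth inhibition of human SF126 cells, read out with a cell viability assay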
Description: SANGER: Inhibition of human SF126 cell growth in a cell viability assay.

SF-268 = assay type: functional, cell-based, Homo sapiens; settings: Homo sapiens, SF-268;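 further: growth inhibition of SF-268 cells determined with a cell viability assay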
Description: SANGER: Inhibition of human SF268 cell growth in a cell viability assay.

SH-4 = assay type: functional, cell-based; settings: Homo sapiens;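 further: growth inhibition of SH-4 cells, read out with a cell viability assay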
Description: SANGER: Inhibition of human SH-4 cell growth in a cell viability assay.

C2BBe1 = assay type: functional, cell-based, Homo sapiens; settings: Homo sapiens, C2BBe1;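 further: growth inhibition of C2BBe1 cells, read out through a viability assay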
Description: SANGER: Inhibition of human C2BBe1 cell growth in a cell viability assay.

SF-539 = assay type: functional, cell-based, Homo sapiens; settings: Homo sapiens, SF-539;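 further: Read-out is a cell viability assay, with IC50 reflecting inhibition of cell growth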
Description: SANGER: Inhibition of human SF539 cell growth in a cell viability assay.

A101D = assay type: functional, cell-based, Homo sapiens; settings: Homo sapiens, A101D;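 further: growth inhibition of the cell line, measured with a viability assay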
Description: SANGER: Inhibition of human A101D cell growth in a cell viability assay.

COLO-800 = assay type: functional, cell-based, Homo sapiens; settings: Homo sapiens, COLO-800;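 further: growth inhibition of COLO-800 cells, read out with a cell viability assay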
Description: SANGER: Inhibition of human COLO-800 cell growth in a cell viability assay.

ES6 = assay type: functional, cell-based; settings: Homo sapiens;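 further: growth inhibition of human ES6 cells, read out with a cell viability assay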
Description: SANGER: Inhibition of human ES6 cell growth in a cell viability assay.

Ramos-2G6-4C10 = assay type: functional, cell-based, Homo sapiens; settings: Homo sapiens, Ramos-2G6-4C10;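 further: growth inhibition of the cell line, measured by a cell viability read-out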
Description: SANGER: Inhibition of human Ramos-2G6-4C10 cell growth in a cell viability assay.

ES8 = assay type: functional, cell-based, Homo sapiens; settings: Homo sapiens, ES8;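 further: growth inhibition of human ES8 cells, read out with a cell viability assay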
Description: SANGER: Inhibition of human ES8 cell growth in a cell viability assay.

LNCaP-Clone-FGC = assay type: functional, cell-based, Homo sapiens; settings: Homo sapiens, LNCaP-Clone-FGC
Description: SANGER: Inhibition of human LNCaP-Clone-FGC cell growth in a cell viability assay.

GB-1 = assay type: functional, cell-based, Homo sapiens; settings: Homo sapiens, GB-1;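 further: growth of GB-1 cells judged by a viability assay, IC50 marks the concentration inhibiting growth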
Description: SANGER: Inhibition of human GB-1 cell growth in a cell viability assay.

TGW = assay type: functional, cell-based, Homo sapiens; settings: Homo sapiens, TGW;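 further: growth inhibition of human TGW cells, read out with a cell viability assay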
Description: SANGER: Inhibition of human TGW cell growth in a cell viability assay.

NCI-H209 = assay type: functional, cell-based, Homo sapiens; settings: Homo sapiens, NCI-H209;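 further: growth inhibition of human NCI-H209 cells, measured by a cell viability assay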
Description: SANGER: Inhibition of human NCI-H209 cell growth in a cell viability assay.

SCC-15 = assay type: functional, cell-based, Homo sapiens; settings: Homo sapiens, SCC-15;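 further: growth inhibition of SCC-15 cells, read out with a cell viability assay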
Description: SANGER: Inhibition of human SCC-15 cell growth in a cell viability assay.

KARPAS-299 = assay type: functional, cell-based, Homo sapiens; settings: Homo sapiens, KARPAS-299
Description: SANGER: Inhibition of human KARPAS-299 cell growth in a cell viability assay.

LS-123 = assay type: functional, cell-based, Homo sapiens; settings: Homo sapiens, LS-123
Description: SANGER: Inhibition of human LS-123 cell growth in a cell viability assay.

HH = assay type: functional, cell-based, Homo sapiens; settings: Homo sapiens, HH
Description: SANGER: Inhibition of human HH cell growth in a cell viability assay.

KNS-42 = assay type: functional, cell-based; settings: Homo sapiens;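 further: growth inhibition of KNS-42 cells, read out with a cell viability assay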
Description: SANGER: Inhibition of human KNS-42 cell growth in a cell viability assay.

NTERA-2-cl-D1 = assay type: functional, cell-based, Homo sapiens; settings: Homo sapiens, NTERA-2-cl-D1;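 further: inhibition of cell growth, measured with a cell viability assay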
Description: SANGER: Inhibition of human NTERA-S-cl-D1 cell growth in a cell viability assay.

LU-134-A = assay type: functional, cell-based, Homo sapiens; settings: Homo sapiens, LU-134-A
Description: SANGER: Inhibition of human LU-134-A cell growth in a cell viability assay.

Mo = assay type: functional, cell-based, Homo sapiens; settings: Homo sapiens, Mo
Description: SANGER: Inhibition of human Mo-T cell growth in a cell viability assay.

ETK-1 = assay type: functional, cell-based, Homo sapiens; settings: Homo sapiens, ETK-1;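 further: growth inhibition of human ETK-1 cells, read out with a cell viability assay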
Description: SANGER: Inhibition of human ETK-1 cell growth in a cell viability assay.

TGBC24TKB = assay type: functional, cell-based; settings: Homo sapiens;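 further: growth inhibition of human TGBC24TKB cells, read out with a cell viability assay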
Description: SANGER: Inhibition of human TGBC24TKB cell growth in a cell viability assay.

BB65-RCC = assay type: functional, cell-based, Homo sapiens; settings: Homo sapiens, BB65-RCC;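 further: growth inhibition of the cell line, measured with a cell viability assay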
Description: SANGER: Inhibition of human BB65-RCC cell growth in a cell viability assay.

IA-LM = assay type: functional, cell-based; settings: Homo sapiens;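 further: cell viability assay measuring growth inhibition of human IA-LM cells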
Description: SANGER: Inhibition of human IA-LM cell growth in a cell viability assay.

LOX IMVI = assay type: functional, cell-based, Homo sapiens; settings: Homo sapiens, LOX IMVI
Description: SANGER: Inhibition of human LOXIMVI cell growth in a cell viability assay.

8-MG-BA = assay type: functional, cell-based, Homo sapiens; settings: Homo sapiens, 8-MG-BA;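 further: growth inhibition of 8-MG-BA cells, read out with a cell viability assay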
Description: SANGER: Inhibition of human 8-MG-BA cell growth in a cell viability assay.

LB2518-MEL = assay type: functional, cell-based; settings: Homo sapiens;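 further: growth inhibition of human LB2518-MEL cells, measured with a cell viability assay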
Description: SANGER: Inhibition of human LB2518-MEL cell growth in a cell viability assay.

MZ1-PC = assay type: functional, cell-based, Homo sapiens; settings: Homo sapiens, MZ1-PC;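 further: cell viability assay measuring growth inhibition of human MZ1-PC cells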
Description: SANGER: Inhibition of human MZ1-PC cell growth in a cell viability assay.

MLMA = assay type: functional, cell-based, Homo sapiens; settings: Homo sapiens, MLMA;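 further: growth inhibition of MLMA cells (human), determined through a cell viability readout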
Description: SANGER: Inhibition of human MLMA cell growth in a cell viability assay.

SK-MEL-1 = assay type: functional, cell-based, Homo sapiens; settings: Homo sapiens, SK-MEL-1;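 further: growth inhibition of human SK-MEL-1 cells, read out by a cell viability assay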
Description: SANGER: Inhibition of human SK-MEL-1 cell growth in a cell viability assay.

HCE-4 = assay type: functional, cell-based; settings: Homo sapiens;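 further: cell viability assay measuring inhibition of growth in the human HCE-4 cell line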
Description: SANGER: Inhibition of human HCE-4 cell growth in a cell viability assay.

D-263MG = assay type: functional, cell-based, Homo sapiens; settings: Homo sapiens, D-263MG
Description: SANGER: Inhibition of human D-263MG cell growth in a cell viability assay.

ES1 = assay type: functional, cell-based, Homo sapiens; settings: Homo sapiens, ES1;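 further: growth inhibition of ES1 cells, read out with a cell viability assay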
Description: SANGER: Inhibition of human ES1 cell growth in a cell viability assay.

KARPAS-45 = assay type: functional, cell-based, Homo sapiens; settings: Homo sapiens, KARPAS-45;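 further: inhibition of cell line growth, read out through a viability assay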
Description: SANGER: Inhibition of human KARPAS-45 cell growth in a cell viability assay.

CGTH-W-1 = assay type: functional, cell-based, Homo sapiens; settings: Homo sapiens, CGTH-W-1;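 further: growth inhibition of human CGTH-W-1 cells measured by cell viability assay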
Description: SANGER: Inhibition of human CGTH-W-1 cell growth in a cell viability assay.

HCC2157 = assay type: functional, cell-based, Homo sapiens; settings: Homo sapiens, HCC2157;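 further: growth inhibition of the cancer cell line, read out as cell viability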
Description: SANGER: Inhibition of human HCC2157 cell growth in a cell viability assay.

NCI-H1355 = assay type: functional, cell-based, Homo sapiens; settings: Homo sapiens, NCI-H1355;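 further: growth inhibition of human NCI-H1355 cells, read out by a cell viability assay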
Description: SANGER: Inhibition of human NCI-H1355 cell growth in a cell viability assay.

MZ7-mel = assay type: functional, cell-based, Homo sapiens; settings: Homo sapiens, MZ7-mel;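 further: growth inhibition of human MZ7-mel cells, measured by a cell viability assay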
Description: SANGER: Inhibition of human MZ7-mel cell growth in a cell viability assay.

GI-1 = assay type: functional, cell-based, Homo sapiens; settings: Homo sapiens, GI-1;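 further: growth inhibition of human GI-1 cells, measured with a cell viability readout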
Description: SANGER: Inhibition of human GI-1 cell growth in a cell viability assay.

GOTO = assay type: functional, cell-based, Homo sapiens; settings: Homo sapiens, GOTO;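 further: growth inhibition of GOTO cells, read out by a cell viability assay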
Description: SANGER: Inhibition of human GOTO cell growth in a cell viability assay.

TE-12 = assay type: functional, cell-based, Homo sapiens; settings: Homo sapiens, TE-12;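 further: growth inhibition of TE-12 cells, read out by a cell viability assay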
Description: SANGER: Inhibition of human TE-12 cell growth in a cell viability assay.

VA-ES-BJ = assay type: functional, cell-based, Homo sapiens; settings: Homo sapiens, VA-ES-BJ;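 further: growth inhibition of the VA-ES-BJ cell line, read out by a cell viability assay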
Description: SANGER: Inhibition of human VA-ES-BJ cell growth in a cell viability assay.

A498 = assay type: functional, cell-based, Homo sapiens; settings: Homo sapiens, A498;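 further: growth inhibition of human A498 cells, read out with a cell viability assay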
Description: SANGER: Inhibition of human A498 cell growth in a cell viability assay.

DMS-114 = assay type: functional, cell-based, Homo sapiens; settings: Homo sapiens, DMS-114
MFM-223 = assay type: functional, cell-based, Homo sapiens; settings: Homo sapiens, MFM-223
Description: SANGER: Inhibition of human MFM-223 cell growth in a cell viability assay.

RPMI-8866 = assay type: functional, cell-based, Homo sapiens; settings: Homo sapiens, RPMI-8866
Description: SANGER: Inhibition of human RPMI-8866 cell growth in a cell viability assay.

SNB-75 = assay type: functional, cell-based, Homo sapiens; settings: Homo sapiens, SNB-75;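 further: cell viability assay measuring growth inhibition of human SNB-75 cells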
Description: SANGER: Inhibition of human SNB75 cell growth in a cell viability assay.

KS-1 = assay type: functional, cell-based; settings: Homo sapiens;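 further: growth inhibition of KS-1 cells, read out with a cell viability assay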
Description: SANGER: Inhibition of human KS-1 cell growth in a cell viability assay.

NC1(c2ccc(-c3nc4ccn5c(=O)[nH]nc5c4cc3-c3ccccc3)cc2)CCC1 [MK-2206]
IC50 (SF-126): > 4000 nM
IC50 (SF-268): > 4 µM
IC50 (SH-4): > 4 µM
IC50 (C2BBe1): > 4 µM
IC50 (SF-539): > 4 µM
IC50 (A101D): > 4 µM
IC50 (COLO-800): > 4000 nM
IC50 (ES6): > 4 µM
IC50 (Ramos-2G6-4C10): 1340 nM
IC50 (ES8): 2490 nM
IC50 (LNCaP-Clone-FGC): 610 nM
IC50 (GB-1): > 4 µM
IC50 (TGW): > 4 µM
IC50 (NCI-H209): > 4 µM
IC50 (SCC-15): > 4 µM
IC50 (KARPAS-299): > 4 µM
IC50 (LS-123): > 4 µM
IC50 (HH): 303 nM
IC50 (KNS-42): > 4 µM
IC50 (NTERA-2-cl-D1): > 4000 nM
IC50 (LU-134-A): 3.88 µM
IC50 (Mo): > 4 µM
IC50 (ETK-1): > 4 µM
IC50 (TGBC24TKB): > 4 µM
IC50 (BB65-RCC): > 4 µM
IC50 (IA-LM): > 4 µM
IC50 (LOX IMVI): > 4000 nM
IC50 (8-MG-BA): > 4000 nM
IC50 (LB2518-MEL): > 4 µM
IC50 (MZ1-PC): > 4 µM
IC50 (MLMA): > 4 µM
IC50 (SK-MEL-1): > 4 µM
IC50 (HCE-4): > 4 µM
IC50 (D-263MG): > 4000 nM
IC50 (ES1): 1240 nM
IC50 (KARPAS-45): 373 nM
IC50 (CGTH-W-1): > 4000 nM
IC50 (HCC2157): 3.38 µM
IC50 (NCI-H1355): > 4 µM
IC50 (MZ7-mel): > 4 µM
IC50 (GI-1): > 4 µM
IC50 (GOTO): > 4 µM
IC50 (TE-12): > 4 µM
IC50 (VA-ES-BJ): 730 nM
IC50 (A498): > 4 µM
IC50 (DMS-114): 3.62 µM
IC50 (MFM-223): 1340 nM
IC50 (RPMI-8866): > 4 µM
IC50 (SNB-75): > 4 µM
IC50 (KS-1): 2380 nM

O=C(NCCCNc1nc(Nc2cccc(NC(=O)N3CCCC3)c2)ncc1I)c1cccs1 [BX-795]
IC50 (SF-126): 2440 nM
IC50 (SF-268): 4.02 µM
IC50 (SH-4): > 5 µM
IC50 (C2BBe1): > 5 µM
IC50 (SF-539): 3.74 µM
IC50 (A101D): 3.64 µM
IC50 (COLO-800): 2050 nM
IC50 (ES6): > 5 µM
IC50 (Ramos-2G6-4C10): 2240 nM
IC50 (ES8): 843 nM
IC50 (LNCaP-Clone-FGC): > 5000 nM
IC50 (GB-1): 4.64 µM
IC50 (TGW): 4.58 µM
IC50 (SCC-15): > 5 µM
IC50 (KARPAS-299): > 5 µM
IC50 (LS-123): > 5 µM
IC50 (HH): 4650 nM
IC50 (KNS-42): > 5 µM
IC50 (NTERA-2-cl-D1): 1080 nM
IC50 (LU-134-A): 3.43 µM
IC50 (Mo): > 5 µM
IC50 (ETK-1): 4.52 µM
IC50 (TGBC24TKB): > 5 µM
IC50 (BB65-RCC): > 5 µM
IC50 (IA-LM): 4.85 µM
IC50 (LOX IMVI): 1510 nM
IC50 (8-MG-BA): 1960 nM
IC50 (LB2518-MEL): > 5 µM
IC50 (MZ1-PC): > 5 µM
IC50 (MLMA): > 5 µM
IC50 (SK-MEL-1): > 5 µM
IC50 (HCE-4): > 5 µM
IC50 (D-263MG): 2380 nM
IC50 (ES1): 1750 nM
IC50 (CGTH-W-1): 971 nM
IC50 (HCC2157): > 5 µM
IC50 (NCI-H1355): > 5 µM
IC50 (MZ7-mel): > 5 µM
IC50 (GI-1): > 5 µM
IC50 (GOTO): > 5 µM
IC50 (TE-12): > 5 µM
IC50 (VA-ES-BJ): 985 nM
IC50 (A498): 4.56 µM
IC50 (DMS-114): > 5 µM
IC50 (MFM-223): > 5000 nM
IC50 (RPMI-8866): > 5 µM
IC50 (SNB-75): > 5 µM
IC50 (KS-1): 1830 nM
